The test system of data set [1] is mdx mouse diaphragm muscle. In words: Fluorescence staining of nanoparticle and rapamycin deposition in mdx diaphragm. The note with it: mdx mouse treated with rapamycin-loaded nanoparticles. Type of data set: in vivo. The text has this:
The nanoparticles were rhodamine-labeled, and the rapamycin was labeled with Cy-7.

The conditions of data set [2]: humans; cited from earlier work.

Here are results for one molecule from patent US9415018B2, “Methods for improving muscle strength” (Washington University, priority 2012, dated 2016).

Turning to `CO[C@H]1C[C@@H]2CC[C@@H](C)[C@@](O)(O2)C(=O)C(=O)N2CCCC[C@H]2C(=O)O[C@H]([C@H](C)C[C@@H]2CC[C@@H](O)[C@H](OC)C2)CC(=O)[C@H](C)/C=C(\C)[C@@H](O)[C@@H](OC)C(=O)[C@H](C)C[C@H](C)/C=C/C=C/C=C/1C` [rapamycin], the “distribution of Cy-7 labeled rapamycin in diaphragm muscle” value in data set [1] was “both punctate and diffuse staining”. Further, the oral absorption in data set [2] is on record as 18%.
